≈ marks a conversion by molar mass, not a printed value. Where only a bound is given, the exact number is not on record here.

Usually melting point stands for the temperature, or range, at which the solid turns liquid. The solubility is the dissolved amount per volume that the medium holds.

The nature of series [1]: Solubility in organic solvents (ethers, alcohols, glycols, ketones). The class given is physicochemical.
The conditions of series [2]: hydrochloride formed in situ by addition of hydrochloric acid to tritoqualine in solution; background statement; cited from earlier work.
A short description of another series: Solubility in ethanol. The following applies: at 20° C.
The conditions of series [3]: in water at room temperature; background statement; cited from earlier work.
The target of series [4] is T1, L-histidine decarboxylase (Homo sapiens, UniProt P19113).
T1 sequence (P19113 1-662): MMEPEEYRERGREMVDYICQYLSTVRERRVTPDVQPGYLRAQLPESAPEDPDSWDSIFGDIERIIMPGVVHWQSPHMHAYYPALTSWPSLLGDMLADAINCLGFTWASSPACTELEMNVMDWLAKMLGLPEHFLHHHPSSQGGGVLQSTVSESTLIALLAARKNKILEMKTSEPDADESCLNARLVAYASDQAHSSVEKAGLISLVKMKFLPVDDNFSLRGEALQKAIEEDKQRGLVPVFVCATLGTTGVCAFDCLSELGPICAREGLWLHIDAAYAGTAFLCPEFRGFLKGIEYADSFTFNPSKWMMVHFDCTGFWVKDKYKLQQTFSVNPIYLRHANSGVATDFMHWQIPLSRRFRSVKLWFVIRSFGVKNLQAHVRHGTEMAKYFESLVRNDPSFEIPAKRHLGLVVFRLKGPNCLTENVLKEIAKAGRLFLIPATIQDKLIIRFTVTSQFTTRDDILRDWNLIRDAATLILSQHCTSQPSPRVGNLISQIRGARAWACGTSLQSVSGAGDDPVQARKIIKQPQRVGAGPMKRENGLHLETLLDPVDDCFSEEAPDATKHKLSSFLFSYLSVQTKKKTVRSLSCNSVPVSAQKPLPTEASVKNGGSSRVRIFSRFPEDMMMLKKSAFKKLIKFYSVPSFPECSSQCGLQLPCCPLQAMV
Conditions: background statement; cited from earlier work.

A short description of the next series: physchem. The following applies: organic solvent or mixture.

For tritoqualine hydrochloride, in series [1] (alcohols and glycols), the “Solubility in alcohols and glycols compared with tritoqualine base” value is “much more soluble than tritoqualine base”. For the same compound, the Solubility in ethers result in series [1] (ethers) was “very little soluble or even insoluble”. Further, the “Solubility in primary alcohols, acetone and methyl ethyl ketone” value in series [1] (primary alcohols, acetone, methyl ethyl ketone) is recorded as “soluble”. For the same compound, in series [2], the “Half lifetime in an aqueous solution” value is listed as “a few hours”. Besides, in “Solubility in water”, the “Behaviour in aqueous solution at pH>3.0” value is “precipitates”. In the series “Solubility in ethanol”, this compound had a Solubility in ethanol greater than 300 g/l at.

Take `CCOc1c(N)c2c(c(OCC)c1OCC)C(C1c3c(cc4c(c3OC)OCO4)CCN1C)OC2=O` (centres unmarked) [Base, 7-amino-4,5,6-triethoxy-3-(4-methoxy-6-methyl-7,8-dihydro-5H-[1,3]dioxolo[4,5-g]isoquinoline-5-yl)-3H-isobenzofuran-1-one]: the melting point was 184 °C. In addition, the Solubility in water in series [3] is 100 ppm. The “Activity as enzymatic inhibitor of L-histidine decarboxylase” value in series [4] is listed as “very low”. Further, the solubility in the series “physchem” (20 °C) was determined as 2.5 mg/mL (≈ 4.99 mM). For the same compound, the solubility in the series “physchem” was determined as 50 mg/mL (≈ 99.9 mM).

Source of the values: patent US9718833B2, “Tritoqualine hydrochloride in crystalline form and a process for obtaining same” (priority 2013, dated 2017).
